“Also recorded” adds a separate entry of the source.
Experiments:
[1] = system: SIK isoforms (Sik1, SIK2, Sik3); experiment: SIK isoform expression in kidneys of adenine diet mice (immunoblot, RT-qPCR, RNAscope); type: in vivo, mouse
Experimental: FIGS. 2A-2C. SIK isoform expression in adenine-induced chronic kidney disease. (A) Kidney protein lysates were isolated and analyzed by imnunoblotting for SIK2 (top) and GAPDH (bottom). SIK2 protein levels are increased in adenine diet. (B) Whole kidney RNA from the indicated groups was analyzed by RT-qPCR for the indicated SIK isoform. (C) Kidney sections from control and CKD (6 weeks adenine diet) were stained using RNAscope (darker shade) for the indicated SIK isoform.
(§1) cDNA was prepared using Primescript RT kit (Takara Inc), with 750 ng RNA per reaction. RT-qPCR was performed by using PerfeCa® SYBR® Green FAstMix® ROX (Quanta bio) in the StepOnePlus™ Real-time PCR System (Applied Biosystems). Hmbs was used as a control housekeeping gene for mouse samples, and B-Actin was used for organoids, relative expression was calculated (2^-deltaCT method) and compared to the mean of control group if necessary. Primers used for RT-qPCR are listed in Table 2 (mouse primers) and Table 3 (human primers).
(§2) Snap-frozen kidneys were homogenized in NP-40 lysis buffer (FNN0021, Thermo) with using TissueLyserII at 30 Hz for 5 minutes. Samples were rotated at 4 deg for 20 minutes and frozen on dry ice and thawed. After centrifuging for 30 minutes at 4 deg, the supernatants were collected. After determining the protein concentration by Bradford assay, […] of protein was loaded for western blotting. For KGli cells, the cells were washed with cold PBS then scraped into TNT buffer (Tris-NaCl-Tween buffer, 20 mM Tris-HCl pH 8, 200 mM NaCl, 0.5% Triton X-100 containing 1X-protease inhibitor cocktail (Bimake Inc. 100X, Cat. #B14001), 1 mM DTT, 1 mM NaF, 1 mM Vanadate (New England Biolabs)). Next, samples were vortexed for 1 minute and centrifuged at 14,000g for 6 minutes at 4 deg, and the supernatant was collected.
For immunoblotting, the lysates were separated by SDS-PAGE (Bio-rad precast gels), and proteins were transferred to the nitrocellulose membranes. Then, the membranes were blocked in 5% milk in tris-buffered saline plus 0.05% Tween-20 (TBST) and incubated with primary antibody in 5% BSA-TBST overnight at 4° C. Next day, after washing, membranes were incubated with anti-rabbit HRP-coupled secondary antibody (1:2500, Cell Signaling Technology, 7074S) or anti-mouse HRP-coupled secondary antibody (1:2500, Cell Signaling, 7076S), and signals were detected with SuperSignal West Femto Maximum Sensitivity Substrate (Thermo scientific) using the iBright imager (ThermoFisher). […]
Hematoxylin and eosin (H+E) staining was performed on some sections using standard protocols and Masson's Trichome stain for fibrosis was performed according to the manufacturer's instructions (ab150686, abcam). […] Then, the signal was amplified (322310, ACD) and detected using Brown DAB kit (322310, ACD).

[2] = system: renal fibrosis, adenine-induced CKD mice; experiment: renal fibrosis in adenine CKD mice (trichrome, immunoblot, RT-qPCR); type: in vivo, mouse; conditions: adenine diet; SK-124 40 mg/kg oral
Experimental: FIGS. 3A-3C. SK-124 treatment reduces fibrosis in adenine-induced chronic kidney disease. (A) Representative trichrome stained sections from the indicated groups. Darker staining indicates fibrosis which is increased in vehicle-treated adenine diet mice and reduced by SK-124 treatment. (B) Kidney protein lysates were isolated and analyzed by immunoblotting for alpha-smooth muscle actin (αSMA) (top) and GAPDH (bottom). (C) Whole kidney RNA from the indicated groups was analyzed by RT-qPCR for the indicated fibrosis marker.
(§3) 7-week-old female CD1 mice were obtained from Charles River Laboratories (Wilmington, MA) and were fed on 0.2% adenine containing diet (TD.130900; 0.2% Adenine, 0.9% Phosphate, 0.5% Calcium; Envigo) or control diet (TD. 96348) for 6 or 8 weeks to induce chronic kidney disease (CKD). Mice were oral gavaged with 40 mg/kg SK-124, or intraperitonially injected with 80 μg/kg PTH, or treated with vehicle 5 days a week for the duration of the special diet.
as §1, §2
For immunoblotting, the lysates were separated by SDS-PAGE (Bio-rad precast gels), and proteins were transferred to the nitrocellulose membranes. Then, the membranes were blocked in 5% milk in tris-buffered saline plus 0.05% Tween-20 (TBST) and incubated with primary antibody in 5% BSA-TBST overnight at 4° C. Next day, after washing, membranes were incubated with anti-rabbit HRP-coupled secondary antibody (1:2500, Cell Signaling Technology, 7074S) or anti-mouse HRP-coupled secondary antibody (1:2500, Cell Signaling, 7076S), and signals were detected with SuperSignal West Femto Maximum Sensitivity Substrate (Thermo scientific) using the iBright imager (ThermoFisher). The antibodies used are: SIK2 (1:1000, Cell Signaling, 6919), GAPDH (1:1000, Cell Signaling, 2118), αSMA (1:1000, Invitrogen, 14-9760-82), pSMAD3 (1:1000, Cell Signaling, 9520), and SMAD⅔ (1:1000, Cell Signaling, 8685).
Hematoxylin and eosin (H+E) staining was performed on some sections using standard protocols and Masson's Trichome stain for fibrosis was performed according to the manufacturer's instructions (ab150686, abcam). Formalin-fixed paraffin embedded sections were also used for in situ hybridization according to the manufacturer instructions (ACDbio). Briefly, the sections were blocked with hydrogen peroxide for 10 minutes at room temperature, followed by antigen retrieval with Pepsin (R2283, Sigma-Aldrich) in humidified chamber in 40° C. HybEZ oven. The Sik1 (526411, ACD), Sik2 (526421, ACD), or Sik3 (526431, ACD) probe was added to the sections for 2 hours in the humidified chamber at 40° C. Then, the signal was amplified (322310, ACD) and detected using Brown DAB kit (322310, ACD). […]

[3] = system: whole kidney transcriptome; experiment: bulk RNA-sequencing of whole kidney, adenine CKD mice; type: in vivo, mouse; conditions: bulk RNA-seq; adenine vs control diet, or SK-124 vs vehicle in CKD mice
Experimental: FIGS. 6A-6F. The effects of SK-124 treatment at the transcriptomic level in adenine-induced mouse chronic kidney disease. RNA-seq was performed on whole kidney RNA samples (n=7/group) from FIG. 1. Volcano plot show gene regulated (>2-fold change, p(adj)<0.05) by CKD (versus control diet, A) or in CKD by SK-124 (versus vehicle control, B). In Volcano plot, representative fibrosis markers (Col3a1, Vim, Serpinel) and proximal tubule integrity (Lrp2. Atplai, and Hnf4a) are shown. Scatterplot (C) and heatmap (D) showing integration of individual RNA-seq comparisons. […] (E) Single cell RNA-sequencing was performed on dissociated kidneys from adenine diet fed mice treated with vehicle or SK-124 (n=4/group). […] (F) Relative cellularity of each annotated cluster is shown in pie chart format for adenine+vehicle (CKD-Veh) or adenine+SK-124 (CKD-SK-124) mice.
Isolated RNA samples from the mouse adenine diet study and human kidney organoid experiment were submitted to Novogene and bulk-RNA sequencing on NovaSeq X Plus Ilumina Novoseq Platform. Sequencing reads were mapped to the mouse reference genome (mm10/GRCm38) or human reference genome (GRCh38/hg38) using Salmon and differential gene expression analysis was performed using DESeq2.

[4] = system: human kidney organoids; experiment: cisplatin injury of human kidney organoids: immunostaining, organoid size; type: cell-based; conditions: intermittent cisplatin, 5 treatments
Experimental: FIG. 7. SK-124 preserves human kidney organoid integrity in cisplatin injury model. Human kidney organoids derived from H9 embryonic stem cells were treated with intermittent cisplatin (5 separate treatments) based on published protocols along with the indicated agent. Organoids were cryo-sectioned and immuno-stained with the indicated markers. The top panels show low power images and the bottom panels focus on regions of proximal tubule cells. The graph measures the mean diameter of organoids in the control (no cisplatin), cisplatin+DMSO, and cisplatin+SK-124 treatment groups.
BJFF human induced pluripotent stem cells (hPSCs) were maintained on Geltrexcoated (Thermo Fisher Scientific) plates using StemFit Basic04 Complete (Ajinomoto Co. Inc.) as previously reported(25). The cells were passaged weekly using Accutase (STEMCELL Technologies) for dissociation and Y27632 (Tocris) for adhesion. Directed differentiation of hPSCs into kidney organoids has been published elsewhere (29). Briefly, hPSCs were differentiated into metanephric mesenchyme cells on day 8 by a three-step directed differentiation protocol. Metanephric mesenchyme was transferred into suspension culture in 96-well ultralow adhesion plates (Coming) and further differentiated into kidney organoids, as previously reported(25). Quality control measures of SIX2 immunostaining on day 8 of differentiation and CDH1, LTL, PODXL, CD146, MEIS1/2/3, and SYTOX-blue staining on day 21 were performed on all batches of kidney organoids to limit batch-to-batch heterogeneity. Kidney organoids were maintained in 200 μl of basal media consisting of Advanced RPMI (Thermo Fisher Scientific) and GlutaMAX (Thermo Fisher Scientific) in 96-well plates, as previously reported. Media changes were conducted three times weekly with removal of 90 [l and addition of 100 μl of fresh basal media.
For cisplatin induced injury, day 49 organoids were treated with 5 μM cisplatin in basal media after full media change. After 24 hours, full media exchanges were performed. This 24-hour treatment was performed twice a week, on day 52-53, day 56-57, day 59-60, and day 63-64 as well, for a total of five cisplatin treatments. Samples were obtained for RT-qPCR and immunostaining immediately following each 24-hour treatment with cisplatin, and from corresponding controls.
Following the treatment, the organoids were collected and immediately fixed in 4% PFA in PBS for 1 hour at room temperature, submerged in 30% sucrose overnight at 4° C., then embedded in O.C.T. Compound (4585. Fisher HealthCare). Subsequently, […] frozen sections were prepared via cryo-sectioning by a cryostat. After 1 hr blocking at room temperature, the sections were treated overnight at 4° C. with primary antibodies in antibody dilution buffer (ADB) with biotinylated LTL (1:200, B-1325, Vector), rat anti-CDH1 (1:500, ab11512, Abcam), goat anti-PODXL (1:500, AF1658, R&D Systems), as well as the antibody of interest, either mouse anti-p21 (1:200, NBP2-43697, Novus Biologicals), or rabbit anti-γH2AX (1:100, 2577, Cell Signaling) antibodies. For the optimum labeling of LTL by biotin/streptavidin interaction, the Streptavidin/Biotin Blocking Kit (SP-2002, Vector Laboratories) was applied according to the manufacturer's instructions. After washing, the samples were stained for 1 hour at RT with the nuclear dye-SYTOX Blue (1:500. S 11348, Invitrogen) and the corresponding secondary antibodies in ADB such as streptavidin-AF750 (1:500, S21384, Invitrogen), donkey anti-rat IgG-AF594 (1:500, A21209, Invitrogen), donkey anti-goat IgG-AF555 (1:500, A21432, Invitrogen), and donkey anti-rabbit IgG-AF488 (1:500, A21206, Invitrogen) for γH2AX or donkey anti-mouse IgG-AF488 (1:500, A21202, Invitrogen) for p21 antibodies as well as mouse anti-Meisl/⅔ (1:200, sc-101850, SantaCruz) conjugated antibody, and slides were mounted with Vectashield antifade mounting medium (H1000, Vector Laboratories). […]

[5] = system: mice with adenine diet-induced chronic kidney disease; experiment: 8 week adenine diet CKD study, SK-124 versus once daily PTH injections; type: in vivo, mouse (female CD1); conditions: 8 weeks
Experimental: FIGS. 4A-4D. […] (A) Study design: Female CD1 mice (n=8/group) were treated with control or 0.2% adenine diet starting at […] of age along with vehicle, PTH (80 mcg/kg/d, IP injections) or SK-124 (40 mg/kg) treatment by oral gavage once daily. Mice were treated for 8 weeks. (B, C) After 8 weeks of treatment, the indicated serum analyte was measured. (D) Whole kidney RNA from the indicated groups was analyzed by RT-qPCR for the indicated fibrosis marker gene.
as §3
For studies with Ubiquitin-Cre^ERt2; Sik2^ff; Sik3^ff mice (JAX #007001 for Ubiquitin-Cre^ERt2: RRID:MGL:5905012 for Sik2 foxed mice; and Sik3^tmla(EUCOMM)Hmgu mice (RRID:MGI:5085429) bred to PGK1 FLPo mice (JAX #011065) in order to generate Sik3 foxed mice), tamoxifen was injected (1 mg, IP, Q48 hours, 3 injections total) in all animals including Cre-negative control littermates housed in cages with Pure-o′Cel bedding at 5 weeks of age. Mice were then fed on 0.2% adenine diet from 6 weeks to 9 weeks of age. Mice were fasted for 6 hours and treated with SK-124 and PTH 4 hours and 2 hours before the sacrifice. Blood and spot urine samples were collected by cheek pouch bleeding and by pipetting urine collected on hydrophobic sand (Labsand; Braintree, MA). Kidneys were immediately snap-frozen in liquid nitrogen for TRIzol (Life Technologies)-Chloroform (Fischer Scientific) based RNA isolation or protein isolation, or fixed in 10% formalin at 4C for 24 hrs for histology. All serum and urine measurements were performed using commercial bioassay detection reagents listed in Table 1, following the manufacturers' instructions. Urine protein levels were measured by Bradford assay and normalized to urine creatinine.
as §1

[6] = whole kidney RNA, RT-qPCR, 6 weeks adenine diet
[7] = SK-124 40 mg/kg oral gavage once daily, or PTH 80 mcg/kg/d IP

Compound	SIK2 protein level ([1]; kidney lysates, immunoblot, 0.2% adenine diet, 6 weeks)	Sik1 expression [1, 6]	Sik2 expression [1, 6]	Sik3 expression [1, 6]	fibrosis (trichrome staining) [2]	injury markers (Col3a1, Vim, Serpine1) [3]	markers of intact proximal epithelial cells (Lrp2, Atpla1, Hnf4a) / epithelial cell integrity [3]	patterns of cisplatin-induced injury [4]	CKD-MBD markers [5, 7]	kidney function [5, 7]	fibrosis marker gene expression ([5]; whole kidney RT-qPCR, SK-124 40 mg/kg oral, or PTH 80 mcg/kg/d IP)
Nc1ncnc2nc[nH]c12 [adenine]	increased; also recorded: robust SIK2 upregulation	increased	increased	trends towards increased	increased	upregulated	reduced				
PTH: Human PTH1-34, dissolved in 10 mM acetic acid								minimal effects	did not cause these effects	did not cause these effects	did not cause these effects

Source: patent US20260306463A1, “SIK INHIBITORS TO TREAT CHRONIC KIDNEY DISEASE” (The General Hospital Corporation, priority 2023, published 2026)
